The subject of series [1] is CD-1 mice. Description: hEPO expression in serum after IV lipid nanoparticles with hEPO mRNA, CD-1 mice. It is filed as in vivo. The settings on record: LNP with DSPC, cholesterol, Compound I; for Mean 6 hr hEPO Concentration: serum 6 hours after injection. The protocol:
To assess potency of expression and metabolic stability of lipids of the disclosure, hepatocyte protein expression (hEPO) was measured following administration to mice of a nanoparticle of the disclosure.
Lipid nanoparticles including DSPC as a phospholipid, cholesterol as a structural lipid, Compound I as a PEG lipid, an ionizable amino lipid of Formula (II), and an mRNA encoding hEPO were intravenously administered to CD-1 mice. The concentration of hEPO in serum was tested at 6 hours after injection.

The subject of series [2] is CD-1 mice. Put plainly: Parent lipid remaining in liver at 24 h, CD-1 mice (hEPO mRNA LNPs). It counts as in vivo. The settings on record: for Approx. Percent Total Dose of Parent Lipid Remaining at 24 h: calculation assumes a 25 g mouse with a 1.5 g liver.

As for `CCCCCCCCC(CCCCCCCC)OC(=O)CCCCCCCN(CCO)CCCCCCCC(=O)OCCC1CCC(CC)C1` (stereo not drawn) [Compound 37], in series [1], the “hEPO AUC” value is 1.25E+06 and the “Mean 6 hr hEPO Concentration” value was 85052 mIU/mL. Also, in series [2], the “Parent Lipid Remaining (nmol/g liver tissue) at 24 h” value is less than 0.1 nmol/g liver tissue and the “Approx. Percent Total Dose of Parent Lipid Remaining at 24 h” value is given as less than 0.1%.

`CCCCCCCCC(CCCCCCCC)OC(=O)CCCCCCCN(CCCCCCCC(=O)OCCC1CCC(CCC)CC1)CCCNc1c(NC)c(=O)c1=O` (stereo not drawn) [Compound 39]: in series [1], the “hEPO AUC” value was found to be 1.94E+06 and the “Mean 6 hr hEPO Concentration” value was 129750 mIU/mL. In series [2], the “Parent Lipid Remaining (nmol/g liver tissue) at 24 h” value amounted to 4 ± 1 nmol/g liver tissue and the “Approx. Percent Total Dose of Parent Lipid Remaining at 24 h” value is listed as 4%.

With `CCCCCCCCC(CCCCCCCC)OC(=O)CCCCCCCN(CCCCCCCC(=O)OCCC1CCC(CC)C1)CCCNc1c(NC)c(=O)c1=O` (stereo not drawn) [Compound 40], in series [1], the “hEPO AUC” value worked out at 4.64E+06 and the “Mean 6 hr hEPO Concentration” value is given as 303957 mIU/mL. In addition, in series [2], the “Parent Lipid Remaining (nmol/g liver tissue) at 24 h” value amounted to 3 ± 0.3 nmol/g liver tissue and the “Approx. Percent Total Dose of Parent Lipid Remaining at 24 h” value is reported as 3%.

For `CCCCCC(CCCCC)CCOC(=O)CCCCCCCN(CCCO)CCCCCCCC(=O)OCCC(CCCCC)CCCCC` [Compound 42], in series [1], the “Mean 6 hr hEPO Concentration” value was 1428145 mIU/mL.

`CCCCCC(CCCCC)CCOC(=O)CCCCCCCN(CCCCO)CCCCCCCC(=O)OCCC(CCCCC)CCCCC` [Compound 44]: in series [1], the “Mean 6 hr hEPO Concentration” value was found to be 1273871 mIU/mL.

With `CCCCCCCCC(CCCCCCCC)OC(=O)CCCCCCCN(CCCO)CCCCCCCC(=O)OCCC(CCCC)CCCC` [Compound 49], the “Mean 6 hr hEPO Concentration” value in series [1] turned out to be 2385524 mIU/mL.

In the case of `CCCCCCCCC(CCCCCCCC)OC(=O)CCCCCCCN(CCCCO)CCCCCCCC(=O)OCCC(CCCC)CCCC` [Compound 50], the “Mean 6 hr hEPO Concentration” value in series [1] came out at 2617164 mIU/mL.

As to `CCCCCC(CCCCC)CCOC(=O)CCCCCCCN(CCCCCCCC(=O)OCCC(CCC)CCC)CCCNc1c(NC)c(=O)c1=O` [Compound 51], in series [1], the “hEPO AUC” value was determined as 1.31E+07 and the “Mean 6 hr hEPO Concentration” value worked out at 1556494 mIU/mL. For the same compound, in series [2], the “Parent Lipid Remaining (nmol/g liver tissue) at 24 h” value was 4 ± 0.6 nmol/g liver tissue and the “Approx. Percent Total Dose of Parent Lipid Remaining at 24 h” value is on record as 4%.

For `CCCCC(CCCC)CCOC(=O)CCCCCCCN(CCCCCCCC(=O)OCCC(CCC)CCC)CCCNc1c(NC)c(=O)c1=O` [Compound 52], in series [1], the “hEPO AUC” value was found to be 3.82E+06 and the “Mean 6 hr hEPO Concentration” value was 564670 mIU/mL. Besides, in series [2], the “Parent Lipid Remaining (nmol/g liver tissue) at 24 h” value is listed as less than 1 nmol/g liver tissue and the “Approx. Percent Total Dose of Parent Lipid Remaining at 24 h” value is recorded as less than 1%.

For the compound `CCCC(CCC)CCOC(=O)CCCCCCCN(CCCCCCCC(=O)OCCC(CCC)CCC)CCCNc1c(NC)c(=O)c1=O` [Compound 53], in series [1], the “hEPO AUC” value was 6.63E+03 and the “Mean 6 hr hEPO Concentration” value is 130324 mIU/mL. Besides, in series [2], the “Parent Lipid Remaining (nmol/g liver tissue) at 24 h” value was less than 1 nmol/g liver tissue and the “Approx. Percent Total Dose of Parent Lipid Remaining at 24 h” value is recorded as less than 1%.

With `CCCCCC(CCCCC)CCOC(=O)CCCCCCCN(CCO)CCCCCCCC(=O)OCCC(CCC)CCC` [Compound 67], in series [1], the “Mean 6 hr hEPO Concentration” value was determined as 969620 mIU/mL.

`CCCCCC(CCCCC)OC(=O)CCCCCCCN(CCO)CCCCCCCC(=O)OCCC(CCC)CCC` [Compound 68]: the “Mean 6 hr hEPO Concentration” value in series [1] was determined as 488014 mIU/mL.

With `CCCCC(CCCC)CCOC(=O)CCCCCCCN(CCO)CCCCCCCC(=O)OCCC(CCCC)CCCC` [Compound 69], the “Mean 6 hr hEPO Concentration” value in series [1] turned out to be 1572094 mIU/mL.

Regarding `CCCCCC(CCCCC)OC(=O)CCCCCCCN(CCO)CCCCCCCC(=O)OCCC(CCCC)CCCC` [Compound 70], in series [1], the “Mean 6 hr hEPO Concentration” value is given as 1479577 mIU/mL.

On to `CCCCCCC(CCCCCC)OC(=O)CCCCCCCN(CCO)CCCCCCCC(=O)OCCC(CCC)CCC` [Compound 71], for which the “Mean 6 hr hEPO Concentration” value in series [1] amounted to 1921281 mIU/mL.

Source of the values: patent US20240189449A1, “LIPID NANOPARTICLES AND POLYNUCLEOTIDES ENCODING ORNITHINE TRANSCARBAMYLASE FOR THE TREATMENT OF ORNITHINE TRANSCARBAMYLASE DEFICIENCY” (ModernaTX, Inc., priority 2021, published 2024).
